The nature of this data set: gradient 5% acetonitrile 3 min, to 50% in 2 min, to 85% in 15 min, held 3 min, 100 µL/min. The following applies: column: Zorbax Extend-C18 2.1 x 50 mm; eluents: water / acetonitrile, 0.1% formic acid. In short, it runs like this: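 Standards, all pure, were combined into mixtures of ~100 molecules and run at 100 μL/min on a Zorbax Extend-C18 column (2.1 × 50 mm, 1.8 μm) with water and acetonitrile, each containing 0.1% formic acid. A coupled quadrupole time-of-flight mass spectrometer operated in positive and negative ionization mode. Retention time values come from computationally picked adduct peaks, each inspected manually.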
`Cc1cc(S(=O)(=O)N2CCCCC2c2nncn2C)ccc1F` (stereo not given): the RP-LC retention time amounted to 717 s.

The molecule `CCc1nnc(-c2cn(CC(=O)Nc3cc(Cl)c(OC)cc3OC)c3ccccc23)o1` displayed an RP-LC retention time of 916 s.

`Fc1ccc(C2Cn3nnc(-c4nc(-c5cccc(Cl)c5)no4)c3CO2)cc1` (stereo not given) returned an RP-LC retention time of 1260 s.

The molecule `O=S(=O)(Cc1ccccc1)N1CCC(c2nc(C3CC3)no2)C1` (stereo not given) showed an RP-LC retention time of 875 s.

With `O=C(NC1CC1)c1ccc(N2CCC(NCc3cc(F)ccc3O)C2)nc1` (stereo not given), the RP-LC retention time is 544 s.

For `Cc1cc(C(=O)N2CCC3(CCC3O)CC2)c(C)o1` (stereo not given), the RP-LC retention time worked out at 683 s.

With `O=C(NCC1CCN(C(=O)Oc2ccccc2)CC1)c1ccsc1`, the RP-LC retention time is 739 s.

`CS(=O)(=O)N1CCC(OC2CCN(C(=O)Nc3cccc(Cl)c3F)CC2)CC1` returned an RP-LC retention time of 787 s.

`CCc1ccc(-c2csc(Cc3nc(-c4ccc5c(c4)OCO5)no3)n2)cc1` returned an RP-LC retention time of 1300 s.

With `O=C1[C@@H]2Cc3c([nH]c4ccccc34)C(CCc3ccccc3)N2C(=O)CN1Cc1ccco1` (stereo not given in full), the RP-LC retention time came out at 1000 s.

Consider `Cn1ncc2c3ccccc3n(CC(=O)NCc3cccs3)c2c1=O`, for which the RP-LC retention time was determined as 764 s.

As for `O=C(Nc1ccccc1C(F)(F)F)N1CCCC(Cn2cnc3cccnc32)C1` (stereo not given), the RP-LC retention time is 680 s.

In the case of `CC(=O)Nc1ccc(NC(=O)c2ccc(-c3ccnc(N4CCCC4)n3)cc2)cc1`, the RP-LC retention time turned out to be 663 s.

`CCn1cc(CCNC(=O)c2ccccc2Cl)c2cccnc21` came in with an RP-LC retention time of 691 s.

The molecule `O=C(c1ccc(F)c(F)c1)N1CCC2(CC1)N=C(c1cccc(Br)c1)NO2` came in with an RP-LC retention time of 935 s.

Regarding `COc1ccc(CCS(=O)(=O)NCC2CCN(Cc3cccs3)CC2)cc1`, the RP-LC retention time worked out at 564 s.

The molecule `O=C(NCCc1csc(-c2cccs2)n1)C1CCN(C(=O)Cc2ccc(F)cc2)CC1` came in with an RP-LC retention time of 774 s.

As for `O=C(c1cn(-c2cc(N3CCCCC3)ncn2)cn1)N1CCN(C(=O)c2ccco2)CC1`, the RP-LC retention time amounted to 675 s.

As for `Cn1cnc(S(=O)(=O)N2CCC(C(=O)N3CCN(c4cccc(C(F)(F)F)c4)CC3)CC2)c1`, the RP-LC retention time worked out at 823 s.

For the molecule `O=C(NCCCN1CCN(c2ccccc2F)CC1)c1nnc(-c2ccccc2)o1`, the RP-LC retention time was found to be 664 s.

`Cc1[nH]nc(-c2c(C)sc(C)c2S(=O)(=O)Nc2cccc(Cl)c2)c1C` yielded an RP-LC retention time of 1100 s.

Take `COc1ccc(CN2CCC3(CC2)CC(O)CCO3)cc1C` (stereo not given): the RP-LC retention time was 606 s.

`CC1=NS(=O)(=O)N(C)C=C1C(=O)OCc1nc(-c2cccc(F)c2)no1` yielded an RP-LC retention time of 967 s.

With `Cc1ccc(S(=O)(=O)CC(=O)Nc2nc(-c3ccc4ccccc4c3)cs2)cc1`, the RP-LC retention time turned out to be 1100 s.

Turning to `COc1ccc(-c2cn3c(CC(=O)Nc4ccccc4C(F)(F)F)csc3n2)cc1OC`, the RP-LC retention time was 755 s.

Turning to `Cc1nc(-c2ccc(N3CCN(C(=O)c4ccccc4F)CC3)nc2)sc1C`, the RP-LC retention time was 873 s.

Take `CC(C(=O)N1CCCN(c2nc3cccnc3o2)CC1)c1ccccc1` (stereo not given): the RP-LC retention time was 718 s.

In turn, `COc1ccccc1CC(=O)N1C[C@@H]2C[C@H]1C[C@@H]2NC(=O)c1ccccc1` yielded an RP-LC retention time of 729 s.

Turning to `COc1ccc(CCC(=O)N2CCc3c(c(C(=O)N4CCCC(C(=O)NC5CC5)C4)nn3C)C2)cc1` (stereo not given), the RP-LC retention time is 649 s.

In turn, `CCC(C)NC(=O)c1c(C)sc2ccn(C)c(=O)c12` (stereo not given) had an RP-LC retention time of 654 s.

`CCOc1ccc(-n2c(=O)c3sccc3n(Cc3nc(-c4ccc(C)c(C)c4)no3)c2=O)cc1` showed an RP-LC retention time of 1130 s.

The molecule `COc1ccc(CNC(=O)N2CCC(c3nc(C(=O)N4CCOCC4)c(C)o3)CC2)cc1` had an RP-LC retention time of 671 s.

Molecule `Cc1noc2nc(C)n(CC(=O)NCCc3ccccc3)c(=O)c12` gave an RP-LC retention time of 752 s.

For `COc1ccc(-c2noc(CS(=O)(=O)c3ccc(Cl)cc3)n2)cc1OC`, the RP-LC retention time is 1030 s.

Consider `NS(=O)(=O)c1ccc(CCNC(=O)c2csc(-c3cnccn3)n2)cc1`, for which the RP-LC retention time is 622 s.

Molecule `CC(C)c1cc(C(=O)Nc2cccc(Cl)c2)nn1C1CCS(=O)(=O)C1` (stereo not given) had an RP-LC retention time of 994 s.

For `Cc1cc(C)cc(NC(=O)N2CCCC(Cn3c(C4CC4)nc4cccnc43)C2)c1` (stereo not given), the RP-LC retention time turned out to be 731 s.

In the case of `COc1ccc(OCc2noc(CNC(=O)c3cc(C)oc3C)n2)cc1`, the RP-LC retention time was 817 s.

As for `Cc1c(Cl)cccc1NC(=O)CN1C(=O)NC2(CCCCC2)C1=O`, the RP-LC retention time worked out at 779 s.

For `CC1=C(c2ccc(F)cc2)S(=O)(=O)N=C1N1CCCN(C(=O)CC(C)(C)C)CC1`, the RP-LC retention time turned out to be 856 s.

`CCn1ccc2cc(S(=O)(=O)N3CCC(C(=O)NCC4CCCO4)CC3)ccc21` (stereo not given) displayed an RP-LC retention time of 771 s.

For `Cc1cc(C(=O)N2CCCCC2c2nncn2-c2ccccc2)nn1C` (stereo not given), the RP-LC retention time worked out at 647 s.

The molecule `Cc1ccccc1CNS(=O)(=O)c1c(C)sc(C)c1-c1n[nH]c(C)c1C` had an RP-LC retention time of 1060 s.

Molecule `O=C(c1cn(-c2cc(N3CCSCC3)ncn2)cn1)N1CCc2ccccc21` yielded an RP-LC retention time of 952 s.

`CCCCC(CC)C(=O)Nc1nc(-c2ccc(Cl)cc2)cs1` (stereo not given) had an RP-LC retention time of 1240 s.

In turn, `COc1ccc(C(=O)N(CC(=O)N(Cc2ccco2)CC2CCCO2)C(C)(C)C)cc1` (stereo not given) showed an RP-LC retention time of 862 s.

`CCc1nc(-c2csc(S(=O)(=O)N3CCCC(C(=O)Nc4ccc(OC)cc4)C3)c2)no1` (stereo not given) gave an RP-LC retention time of 917 s.

`Cc1cc(C)cc(Nc2c(C(=O)N3CCCCC3C)cnc3nc(C)ccc23)c1` (stereo not given) came in with an RP-LC retention time of 703 s.

The molecule `CSc1ccc(NC(=O)NC2CCN(c3ccc(F)c(C)c3)C2=O)cc1` (stereo not given) registered an RP-LC retention time of 873 s.

Molecule `CCc1nc(-c2cccc(-c3noc(COc4ccc(OC)cc4)n3)c2)cs1` gave an RP-LC retention time of 1270 s.

The molecule `COc1ccc(NC(=O)c2c(O)c3cccnc3n(-c3ccccc3)c2=O)cc1` registered an RP-LC retention time of 1200 s.

`Cc1ccc(NC(=O)Cn2ncc3c(c2=O)N(CC2CC2)C(=O)CS3)cc1C` had an RP-LC retention time of 812 s.

`O=C(c1sc2ncccc2c1-n1cccc1)N1CCN(c2ncccn2)CC1`: the RP-LC retention time stood at 866 s.

Molecule `CC(C)CC1c2nccn2CCCN1C(=O)c1cc(C2CC2)[nH]n1` (stereo not given) gave an RP-LC retention time of 614 s.

In turn, `CCCC(=O)N1CCC2(C1)C(=O)Nc1ccc(OC)cc12` (stereo not given) yielded an RP-LC retention time of 652 s.

Molecule `CCCCN1CCN(Cc2nc(-c3ccc(N4CCCCC4)nc3)no2)CC1` returned an RP-LC retention time of 602 s.

For `COCc1noc([C@@H]2CC(F)(F)CN2C(=O)c2c(C)noc2C)n1`, the RP-LC retention time was 705 s.

As to `CC(C(=O)N1CCN(Cc2ccc3c(c2)OCO3)CC1)n1c2ccccc2c2cnn(C)c(=O)c21` (stereo not given), the RP-LC retention time was 669 s.

Consider `Cc1cc(C(F)(F)F)nn1CC(=O)N1CCc2nn(CC3CC3)c(=O)n2CC1`, for which the RP-LC retention time came out at 712 s.

Molecule `Cc1ccc(-n2cc(C(=O)N3CCSCC3)nn2)cc1C` had an RP-LC retention time of 852 s.

`Cc1cc(N2CCN(C(=O)Nc3ccc(C)c(Cl)c3)CC2)nc(N2CCCC2)n1` returned an RP-LC retention time of 747 s.

On to `CC(C(=O)NCCCN1CCC(N2CCCCC2)CC1)n1c(=O)c(C(F)(F)F)nc2ccccc21` (stereo not given), for which the RP-LC retention time came out at 595 s.

Regarding `CCc1csc(-c2ccc(N3CCN(C(=O)c4c(F)cccc4F)CC3)nc2)n1`, the RP-LC retention time turned out to be 976 s.

`Cc1nc(-c2ccncc2)nc2c1CC(=O)N2C1CCCCC1` gave an RP-LC retention time of 716 s.

The molecule `COc1ccc(CNC(=O)NC2CCN(c3ccc(C)c(C)c3)C2=O)cc1` (stereo not given) came in with an RP-LC retention time of 793 s.

Molecule `COc1cc(CCc2cc(NC(=O)c3ccc(N4C[C@@H](C)N[C@@H](C)C4)cc3)n[nH]2)cc(OC)c1` showed an RP-LC retention time of 687 s.

`O=c1[nH]c2sc3c(c2c(=O)n1-c1ccccc1)CCCC3` yielded an RP-LC retention time of 772 s.

The molecule `Cc1ccc(CC(=O)Nc2cc(-c3nnc(C4CC4)o3)sc2C)cc1` displayed an RP-LC retention time of 981 s.

For the molecule `CCc1nncn1C1CCN(C(=O)c2cc(F)ccc2Cl)CC1`, the RP-LC retention time stood at 628 s.

On to `CCOC(=O)C1=C(CN(CC)Cc2ccccc2)NC(=O)NC1c1cccs1` (stereo not given), for which the RP-LC retention time is 674 s.

The molecule `CC(=O)N1CCc2c([nH]c3ccccc23)C12C(=O)Nc1ccccc12` (stereo not given) displayed an RP-LC retention time of 721 s.

`COc1ccccc1NC(=O)c1c(O)c2cccnc2n(-c2ccc(F)cc2)c1=O` returned an RP-LC retention time of 864 s.

Take `CC(=O)Nc1ccc(-c2noc(C3CCCN(C(=O)c4ccsc4)C3)n2)cc1` (stereo not given): the RP-LC retention time was found to be 766 s.

Molecule `CCOc1ccc(CNC(=O)c2cn3c(n2)COCC3)cc1` came in with an RP-LC retention time of 614 s.

The molecule `O=C(Nc1ccc(F)cc1)N1CCC(CCNC(=O)C2(c3ccccc3)CC2)CC1` showed an RP-LC retention time of 897 s.

For the molecule `CCc1nc(OCC(=O)NCc2cccc(F)c2)c2c(C)c(C)oc2n1`, the RP-LC retention time is 942 s.

`Cc1cccc(NS(=O)(=O)c2cc3c(=O)n(C)ncn3c2)c1` yielded an RP-LC retention time of 797 s.

`Cn1c(=O)c2c(nc(Cc3ccccc3)n2C)n(C)c1=O`: the RP-LC retention time was 764 s.

The molecule `Cn1cnnc1C1CCCCN1C(=O)c1ccc2c(c1)OCO2` (stereo not given) displayed an RP-LC retention time of 618 s.

Take `CC(C)NC(=O)c1ccc(OCC2CCN(C(=O)c3ccc(N(C)C)cc3)CC2)cc1`: the RP-LC retention time is 816 s.

The values above are taken from the METLIN SMRT retention time set (Domingo-Almenara et al. 2019).
